According to patent EP4741420A1, “PHARMACEUTICAL COMPOSITION FOR PREVENTING OR TREATING OBESITY COMPRISING GLP ANALOGUE AS ACTIVE INGREDIENT” (priority 2023, dated 2025):
Peptide text beside a SMILES is read from it.

Assays:
GLP-1R = GLP-1R (Homo sapiens, UniProt P43220); test: GLP-1 activation: cell-based cAMP assay in GLP-1R/CHO cells
[1] = test system: diet-induced obesity (DIO) mouse model; test: DIO mouse model QD: body composition by DEXA (Example 7-2); format: in vivo, mice; details: QD (once daily), 45 nmol/kg/dose
Experimental: (§1) The anti-obesity effects of SEQ ID NO: 1 prepared in Example 1, and SEQ ID NOs: 6 and 7 prepared in Example 4 were analyzed. […] In addition, as an experimental model, a diet-induced obesity (DIO) mouse model fed a high-fat diet for 3 months was used.
To analyze the anti-obesity effect, body composition analysis was conducted using Dual Energy X-ray Absorptiometry (DEXA). The DEXA imaging system (VET DXA iNSiGHT) is for measuring the bone density and body fat of an experimental animal through dual X-ray transmission, and after the completion of experimental material administration, DEXA fat mass and muscle mass were measured for each individual. Accordingly, body weight was categorized into BMC, lean, and fat, and the fat reduction was analyzed to provide a more objective assessment of the anti-obesity effect according to Example 7-1.

[2] = test system: diet-induced obesity (DIO) mouse model; test: DIO mouse model QD: obesity-related factors in plasma (Example 7-4); format: in vivo; details: DIO mice, QD (once daily), 45 nmol/kg/dose
Experimental: (§2) In addition, after the experiment was completed, blood and serum samples were obtained from each mouse model, and biochemical tests were performed for blood glucose, total cholesterol, high-density lipoprotein (HDL), low-density lipoprotein (LDL), and triglycerides.
as §1
To analyze the anti-obesity effect, mouse plasma was obtained postmortem to measure obesity-related factors in plasma. Here, the analysis method was the same as described in Example 3.

[3] = test system: diet-induced obesity (DIO) mouse model; test: DIO mouse model QD: weight loss and cumulative food intake (Example 7-1); format: in vivo; details: DIO mice, QD (once daily), 4-week administration, 45 nmol/kg/dose
Experimental: The obesity treatment effect of the long-acting GLP analog prepared in Example 1 was evaluated. Specifically, an obesity animal model was prepared to confirm the obesity treatment effect, and after administering a certain amount of material, the model was subjected to measurement of a body weight and the change in food intake, and biochemical tests. First, to establish a diet-induced obesity mouse model, C57BL/6 DIO mice were fed a high-fat diet for 12 weeks, resulting in a body weight that was 130% that of the control (DIO model). Afterward, the mice were grouped at a specific time point to determine the average weight of the DIO model (46.2±2.2), followed by drug administration to the mice for 4 weeks. Here, the body weight and food intake were measured daily.
as §1
To analyze the anti-obesity effect, first, the comparative analysis of weight loss effect and cumulative food intake was conducted. The experimental method was the same as described in Example 3.

[4] = test system: diet-induced obesity (DIO) mouse model; test: DIO mouse model QD: liver weight and steatosis score, H&E (Example 8-2); format: in vivo, mice; details: QD (once daily), 45 nmol/kg/dose
Description: To examine liver weight and steatosis, the liver weight elevated by obesity induction and the degree of steatosis after liver H&E staining were scored from grades 0 to 3 to compare the drug's hepatic efficacy. First, after the test was completed, the animal's liver was excised on the day of necropsy to confirm the liver efficacy of the drug. After measuring the weight of the excised liver, the intermediate lobes were frozen in liquid nitrogen for the subsequent measurement of triglycerides. The remaining portion of the liver was fixed in 10% neutral buffered formalin and subjected to histopathological examination.
For H&E analysis, the liver tissue fixed in the buffered formalin was put into an automatic tissue processor, embedded in paraffin, and then prepared into a paraffin block. Subsequently, the paraffin block was prepared into a tissue section, which was stained with hematoxylin & eosin (H&E). The stained tissue slide was observed using an optical microscope (BX61, Olympus, Japan) and photographed (DP80, Olympus, Japan).
Histopathological quantification of liver tissue was performed by scoring the degree of steatosis on H&E-stained slides from grades 0 to 3. The contents corresponding to each scoring grade are as follows.

C57BL/6 DIO mice [5] = test: Diet-induced obesity mouse model: blood/serum biochemical tests (Example 3); format: in vivo; details: after 4 weeks, 0.20 mg/kg/dose (dose from Table 3)
Experimental: Here, the body weight and food intake were measured daily.
as §2

[6] = test system: diet-induced obesity (DIO) mouse model; test: DIO mouse model QD: liver Oil Red O staining (Example 8-4); format: in vivo; details: DIO mice, QD (once daily), 45 nmol/kg/dose
Experimental: Finally, to confirm the anti-obesity effect in the liver, liver Oil Red O staining analysis was performed. ORO staining is a staining method used to detect triglycerides (fat) in adipose-related diseases, and used to differentiate fat embolism, liposarcoma, hepatic steatosis, and lipid accumulation disorders. In addition, it can also detect lipid complexes, such as phospholipids. For ORO analysis, liver tissue was processed in 30% sucrose in a refrigerator for 3 days to prepare frozen tissue sections, which were used to prepare OCT-embedded frozen blocks. Cryosections were prepared and stained with ORO.

[7] = test system: diet-induced obesity (DIO) mouse model; test: DIO mouse model QD: liver damage markers AST/ALT (Example 8-1); format: in vivo; details: serum, DIO mice, QD (once daily), 45 nmol/kg/dose
Experimental: The anti-obesity effect in the liver was analyzed for the same materials used in Example 7. Specifically, liver damage marker (AST/ALT) analysis, liver weight/fatty liver examination, hepatic triglyceride measurement, and liver ORO staining analysis were performed.
To analyze the liver damage markers, AST/ALT, blood biochemical analysis was performed on the blood of a material-treated obese mouse model. Specifically, the collected blood was divided into two tubes, approximately 200 µL of the blood was put into each EDTA tube, and the remaining volume was injected into a vacutainer tube containing a coagulant. Blood collected in an EDTA tube was used to measure glycated hemoglobin on the same day, while the blood collected in the vacutainer tube was left at room temperature for 15 to 20 minutes to coagulate, and then centrifuged for 10 minutes to obtain serum. The serum was used for blood biochemical analysis.

C57BL/6 DIO mice [8] = test: Diet-induced obesity mouse model: body weight and food intake (Example 3); format: in vivo; details: 4 weeks administration, 0.20 mg/kg/dose
[9] = test system: diet-induced obesity (DIO) mouse model; test: DIO mouse model QD: fat weight by tissue (Example 7-3); format: in vivo; details: fat weight of tissue, DIO mice, QD (once daily), 45 nmol/kg/dose
Experimental: as §1
To analyze the anti-obesity effect, the amount of fat by tissue was measured postmortem to further confirm the efficacy of the peptide in obesity. Specifically, the epididymal, mesenteric, inguinal, and perirenal tissues of animals euthanized by decapitation were excised to measure the fat weights for each tissue and then photographed.

Sequence of GLP-1R (P43220 24-463): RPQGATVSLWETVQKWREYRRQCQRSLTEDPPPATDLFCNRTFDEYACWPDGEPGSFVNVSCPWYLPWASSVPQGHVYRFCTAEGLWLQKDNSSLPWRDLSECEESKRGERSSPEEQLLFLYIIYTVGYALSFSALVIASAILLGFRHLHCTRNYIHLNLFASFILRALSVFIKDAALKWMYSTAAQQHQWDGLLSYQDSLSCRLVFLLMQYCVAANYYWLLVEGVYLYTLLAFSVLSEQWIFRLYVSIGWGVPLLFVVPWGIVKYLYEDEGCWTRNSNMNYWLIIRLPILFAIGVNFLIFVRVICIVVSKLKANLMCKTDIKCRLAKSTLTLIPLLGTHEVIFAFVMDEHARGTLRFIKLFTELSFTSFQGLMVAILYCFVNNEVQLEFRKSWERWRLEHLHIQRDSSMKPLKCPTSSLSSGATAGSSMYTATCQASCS

CCCCCCCCCCCCCCCC(=O)N[C@@H](CCC(=O)NCCCC[C@H](NC(=O)[C@H](CCCCN)NC(=O)[C@H](CC(=O)O)NC(=O)[C@@H](NC(=O)[C@@H](NC(=O)[C@H](CCCCN)NC(=O)[C@@H](NC(=O)[C@H](CCC(N)=O)NC(=O)[C@@H](NC(=O)[C@H](CC(C)C)NC(=O)[C@H](Cc1c[nH]c2ccccc12)NC(=O)[C@H](CC(N)=O)NC(=O)[C@@H](NC(=O)[C@H](Cc1ccccc1)NC(=O)[C@H](CC(=O)O)NC(=O)[C@H](CCCNC(=N)N)NC(=O)[C@H](C)NC(=O)[C@H](C)NC(=O)[C@H](CC(C)C)NC(=O)[C@H](C)NC(=O)[C@H](CC(=O)O)NC(=O)[C@H](CC(C)C)NC(=O)[C@H](Cc1ccc(O)cc1)NC(=O)[C@@H](NC(=O)[C@H](CO)NC(=O)[C@H](CC(C)C)NC(=O)[C@H](CC(=O)O)NC(=O)[C@H](CO)NC(=O)[C@@H](NC(=O)[C@H](Cc1ccccc1)NC(=O)[C@@H](NC(=O)CNC(=O)[C@H](CCC(=O)O)NC(=O)CNC(=O)[C@@H](N)Cc1c[nH]cn1)[C@@H](C)O)[C@@H](C)O)[C@@H](C)O)[C@@H](C)CC)[C@@H](C)CC)[C@@H](C)O)[C@@H](C)CC)[C@@H](C)O)C(=O)O)C(=O)O [HU020K2FA] (HELM PEPTIDE1{H.G.E.G.T.F.T.S.D.L.S.T.Y.L.D.A.L.A.A.R.D.F.I.N.W.L.I.Q.T.K.I.T.D.K.K}|PEPTIDE2{[CCCCCCCCCCCCCCCC(=O)[*:2]].[gGlu]}$PEPTIDE1,PEPTIDE2,35:R3-2:R2$$$V2.0; N-terminus and C-terminus assumed)
GLP-1 activity Compared to GLP-1 (Exendin-4) (GLP-1R; Example 5, relative to Exendin-4): 23.6%
Average (n=4) Relative to GLP-1 (Exendin-4) % (GLP-1R; GLP-1R/CHO cells, cAMP, relative to Exendin-4 (Example 2)): 63.4±29.4%
Fat ([1]; DEXA, DIO mice): 9.6 ± 1.0 g
Lean ([1]; DEXA, DIO mice): 26.5 ± 1.7 g
Weight ([1]; Table 9, DIO mice): 37.5 ± 2.6 g
Weight (%) (Normalized to DIO vehicle) ([1]; Table 9, DIO mice): 80.3±4.4%
HbA1c (%) ([2]; blood): 4.39±0.21%
GLU ([2]; plasma): 209.2 ± 9.3 mg/dL
HDL ([2]; plasma): 100.4 ± 9.3 mg/dL
LDL ([2]; plasma): 8.9 ± 9.3 mg/dL
TCHO ([2]; plasma): 198.6 ± 24.3 mg/dL
TG ([2]; plasma): 75.1 ± 19.4 mg/dL
Comparison of weight change (%) [3]: -16.0±3.2%
Weight [3]: 37.5 ± 2.6 g
Weight (%) (Normalized to DIO vehicle) [3]: 80.3±4.4%
Food intake ([3]; cumulative): 16.0 ± 1.8 g
Liver weight ([4]; DIO mice): 1.58±0.10
Hepatic steatosis test (Score 0~3) ([4]; H&E, mean of grades 0 to 3, DIO mice): 0.97±0.47
Blood glucose (C57BL/6 DIO mice [5]): 192.0 ± 20.2 mg/dL
High-density lipoprotein (C57BL/6 DIO mice [5]): 76.0 ± 4.0 mg/dL
Low-density lipoprotein (C57BL/6 DIO mice [5]): 9.8 ± 1.5 mg/dL
Toal cholesterol (C57BL/6 DIO mice [5]): 134.8 ± 10.7 mg/dL
Triglyceride (C57BL/6 DIO mice [5]): 13.6 ± 4.8 mg/dL
ORO positive area (%) [6]: 1.41±0.66%
ALT (U/L) [7]: 34.7±5.9 U/L
AST (U/L) [7]: 68.5±9.2 U/L
Cumulative food intake (C57BL/6 DIO mice [8]): 55.3 ± 4.0 g
Weight (C57BL/6 DIO mice [8]): 36.6 ± 4.0 g
Weight change (%) (C57BL/6 DIO mice [8]; compared to day 0): -19.4±4.7%
Epididymal [9]: 1.71±0.16
Inguinal [9]: 2.37±0.21
Mesentric [9]: 0.74±0.21
Perirenal [9]: 0.33±0.08
